Source: patent US20260200925A1, “SMALL MOLECULE INHIBITORS OF KRAS MUTATED PROTEINS” (MERCK SHARP & DOHME LLC, priority 2021, published 2026)
Counter-ions that a name gives are not always drawn.

Legend:
[1] = tested on: AsPC-1 cells containing homozygous KRAS-G12D activating mutation (p-ERK); settings: Homo sapiens, ASPC1, 2 h, read-out: KRAS G12D ASPC-1 IC50 (nM)
Protocol: Procedure for Cellular Phospho-ERK Assay, G12D
AsPC-1 cells (ATCC® CRL-1682™), containing homozygous KRAS-G12D activating mutation, were cultured in T150 flask in growth medium (RPMI medium 1640-GlutaMAX™—I (ThermoFisher Scientific 61870) containing 10% fetal bovine serum (ThermoFisher Scientific 10091148)). The cells were harvested in growth medium after TrypLE (ThermoFisher scientific 12604021) digestion and were seeded in a 384-well collagen coated cell culture plate (Corning 356702) at a density of 15,000 cells/well, and incubated at 37° C., 5% CO2 overnight. […] RPMI medium 1640-GlutaMAX™—I was added to the intermediate plate and the contents of the intermediate plate were then transferred to the 384-well collagen coated cell culture plate, which was incubated at 37° C., 5% CO2 for 2 hours. After removal of medium from the collagen coated cell culture plate, cells were lysed in lysis buffer from Alpha SureFire® Ultra™ Multiplex p-ERK and total ERK assay kit (PerkinElmer MPSU-PTERK) containing Halt™ Protease and Phosphatase inhibitor cocktail (ThermoFisher Scientific 78446) at room temperature with constant shaking at 300 rpm for 30 minutes. The cell lysates were then transferred to an OptiPlate-384 plate (PerkinElmer 6005620), and the phosphorylation of ERK (p-ERK) and total ERK levels were detected by Alpha SureFire® Ultra™ Multiplex p-ERK kit and total ERK assay kit (PerkinElmer MPSU-PTERK) following the manufacturer's protocol. Assay plates were read on a EnVision Multimode Plate Reader (PerkinElmer), and the ratio of p-ERK vs. total ERK in each well was used as the final readout. Dose response curves were analyzed using a 4-parameter logistic model to calculate IC50 values using Spotfire software.

[2] = tested on: NCI-H358 cells containing homozygous KRAS-G12C activating mutation (p-ERK); settings: Homo sapiens, NCI-H358, 2 h, read-out: G12C H358 IC50 (nM)
Protocol: Procedure for Cellular Phospho-ERK Assay, G12C
NCI-H358 cells (ATCC® CRL-5807™), containing homozygous KRAS-G12C activating mutation, were cultured in T150 flask in growth medium (RPMI medium 1640-GlutaMAX™—I (ThermoFisher Scientific 61870) containing 10% fetal bovine serum (ThermoFisher Scientific 10091148)). The cells were harvested in growth medium after TrypLE (ThermoFisher scientific 12604021) digestion and were seeded in a 384-well collagen coated cell culture plate (Corning 356702) at a density of 15,000 cells/well, and incubated at 37° C., 5% CO2 overnight. […] RPMI medium 1640-GlutaMAX™—I was added to the intermediate plate and the contents of the intermediate plate were then transferred to the 384-well collagen coated cell culture plate, which was incubated at 37° C., 5% CO2 for 2 hours. After removal of medium from the collagen coated cell culture plate, cells were lysed in lysis buffer from Alpha SureFire® Ultra™ Multiplex p-ERK and total ERK assay kit (PerkinElmer MPSU-PTERK) containing Halt™ Protease and Phosphatase inhibitor cocktail (ThermoFisher Scientific 78446) at room temperature with constant shaking at 300 rpm for 30 minutes. The cell lysates were then transferred to an OptiPlate-384 plate (PerkinElmer 6005620), and the phosphorylation of ERK (p-ERK) and total ERK levels were detected by Alpha SureFire® Ultra™ Multiplex p-ERK kit and total ERK assay kit (PerkinElmer MPSU-PTERK) following the manufacturer's protocol. Assay plates were read on an EnVision Multimode Plate Reader (PerkinElmer), and the ratio of p-ERK vs. total ERK in each well was used as the final readout. Dose response curves were analyzed using a 4-parameter logistic model to calculate IC50 values using Spotfire software.

G13D = G13D (Homo sapiens, UniProt P01116, G13D); assay: Guanine nucleotide exchange (GNE) assay, G13D; assay type: biochemical
Protocol: (§1) The TR-FRET signal is measured on an Envision (PerkinElmer) plate reader: Excitation filter=340 nm; emission 1=495 nm; emission 2=520 nm; dichroic mirror=D400/D505; delay time=100 ms. The signal of each well is determined as the ratio of the emission at 520 nm to that at 495 nm. […] The apparent effect as a function of compound concentration is fit to a four-parameter logistic equation to calculate IC50 values using Spotfire software.

[3] = target: Recombinant KRAS-G12D (SEQ ID NO: 2) (Homo sapiens, UniProt P01116, G12D); assay: SOS-catalyzed guanine nucleotide exchange (GNE) assay, KRAS-G12D
Protocol: (§2) Specifically, the SOS-catalyzed nucleotide exchange assay utilizes a preformed time-resolved fluorescence resonance energy transfer (TR-FRET) complex containing a specific biotinylated RAS protein (KRAS-G12C/V/D, HRAS, NRAS; described above) with BODIPY-GDP, and Terbium-streptavidin. Test compounds are preincubated with this complex for 60 minutes.
(§3) To assemble the preformed TR-FRET complexes, each biotinylated RAS protein is diluted to 2 μM in an EDTA Buffer (20 mM HEPES, 50 mM sodium chloride, 10 mM EDTA, and 0.01% Tween) and incubated at room temperature for one hour. This mixture is then further diluted to 90 nM in an Assay Buffer (20 mM HEPES, 150 mM sodium chloride, 10 mM magnesium chloride, and 0.005% Tween) containing 15 nM of Terbium-Streptavidin (Invitrogen, catalog #PV3577) and 900 nM of BODIPY-GDP (Invitrogen, catalog #G22360) and incubated at room temperature for six hours. It should be noted that this preformed TR-FRET complex for each of the RAS proteins was made ahead of time, aliquoted and stored at −80° C. until the day of the experiment.
(§4) Once titrations are made, 10 nL of the diluted compounds is acoustically dispensed into a 384-well assay plate (Corning, catalog #3820) using an Echo 550 (Labcyte). Each well of the assay plate subsequently receives 3 μL of a specific 3× RAS preformed TR-FRET complex and 3 μL of Assay Buffer and is incubated at room temperature for 60 minutes (preincubation time). […] The final reaction in each well of 9 μL consists of 3 mM GTP, and the specific RAS and SOS proteins in the following concentrations: KRAS-G12C/SOS=3 nM/40 nM, KRAS-G12D/SOS=1 nM/40 nM, KRAS-G12V/SOS=1.25 nM/160 nM, HRAS/SOS=1.25 nM/40 nM, and NRAS/SOS=1.25 nM/40 nM.
as §1

[4] = target: Recombinant KRAS-G12V (SEQ ID NO: 3) (Homo sapiens, UniProt P01116, G12V); assay: SOS-catalyzed guanine nucleotide exchange (GNE) assay, KRAS-G12V
Chain of Recombinant KRAS-G12V (SEQ ID NO: 3) (P01116 with tags, fused parts or gaps isoform P01116-2 G12V): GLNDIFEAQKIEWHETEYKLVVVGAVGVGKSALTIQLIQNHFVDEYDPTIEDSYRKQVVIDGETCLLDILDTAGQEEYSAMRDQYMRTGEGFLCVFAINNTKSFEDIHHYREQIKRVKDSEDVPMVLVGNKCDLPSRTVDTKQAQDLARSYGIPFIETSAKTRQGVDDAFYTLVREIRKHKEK
Protocol: as §2, §3, §4, §1

Chain of G13D (P01116 1-188 isoform P01116-2 G13D): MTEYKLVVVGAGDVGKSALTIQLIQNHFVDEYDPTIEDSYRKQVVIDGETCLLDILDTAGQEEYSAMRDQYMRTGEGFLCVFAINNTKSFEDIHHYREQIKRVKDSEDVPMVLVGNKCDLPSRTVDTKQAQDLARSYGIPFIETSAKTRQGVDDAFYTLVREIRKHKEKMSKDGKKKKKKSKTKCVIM
Chain of Recombinant KRAS-G12D (SEQ ID NO: 2) (P01116 with tags, fused parts or gaps isoform P01116-2 G12D): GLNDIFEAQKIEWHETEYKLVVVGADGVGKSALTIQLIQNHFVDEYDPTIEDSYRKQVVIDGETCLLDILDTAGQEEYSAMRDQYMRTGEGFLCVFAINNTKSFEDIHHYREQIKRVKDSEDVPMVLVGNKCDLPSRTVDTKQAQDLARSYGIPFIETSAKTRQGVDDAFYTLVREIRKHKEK

| IC50 [1] | IC50 [2] | IC50 (G13D) | IC50 [3] | IC50 [4] | Compound |
| --- | --- | --- | --- | --- | --- |
| 690 nM | 427 nM |  |  |  | CN1CCC[C@H]1COc1nc(N2CCC[C@@](C)(O)C2)c2cc(F)c(-c3cc(O)cc4cccc(Cl)c34)c(F)c2n1 [Ex-49, (3R)-1-(7-(8-chloro-3-hydroxynaphthalen-1-yl)-6,8-difluoro-2-(((S)-1-methylpyrrolidin-2-yl)methoxy)quinazolin-4-yl)-3-methylpiperidin-3-ol trifluoracetate salt] |
| 20 nM | 2 nM | 1 nM | 1 nM | 1 nM | C#Cc1cccc2cc(O)cc(-c3ncc4c(N5CCC[C@@](C)(O)C5)nc(OC[C@]5(CN(C)C)CC5(F)F)nc4c3F)c12 [Ex-24, (R)-1-(2-(((R)-1-((dimethylamino)meth-yl)-2,2-difluorocyclopropyl)methoxy)-7-(8-ethynyl-3-hydroxynaphthalen-1-yl)-8-fluoropyrido[4,3-d]pyrimidin-4-yl)-3-methylpiperidin-3-ol] |
|  |  | 86 nM | 163 nM | 143 nM | CC1CN(c2nc(OC[C@@]34CCCN3C[C@H](F)C4)nc3c(F)c(-c4cc(O)cc5cccc(Cl)c45)c(F)cc23)CC(C)(O)C1 (single isomer, unassigned) [Ex-33] |
|  |  | 5190 nM | 1190 nM | 1230 nM | CN(C)C[C@@]1(COc2nc(N3CCC[C@@](C)(O)C3)c3cc(F)c(-c4cccc5ccc(F)c(Cl)c45)c(F)c3n2)CC1(F)F [Ex-14, (3R)-1-(7-(8-chloro-7-fluoronaphthalen-1-yl)-2-(((R)-1-((dimethylamino)methyl)-2,2-difluorocyclopropyl)methoxy)-6,8-difluoroquinazolin-4-yl)-3-methylpiperidin-3-ol] |
|  |  | 2660 nM | 2710 nM | 2290 nM | Cc1cc2[nH]ncc2c(-c2c(F)cc3c(N4CCC[C@@](C)(O)C4)nc(OCC4(CN5CC[C@@H](F)C5)CC4)nc3c2F)c1C [Ex-39, (3R)-1-(7-(5,6-dimethy1-1H-indazol-4-yl)-6,8-difluoro-2-((1-(((R)-3-fluoropyrrolidin-1-yl)methyl)cyclopropyl)methoxy)quinazolin-4-yl)-3-methylpiperidin-3-ol] |
| 3840 nM |  |  |  |  | Oc1cc(-c2c(F)cc3c(N4CCC[C@@H](O)C4)nc(OC[C@@]45CCCN4C[C@H](F)C5)nc3c2F)c2c(Cl)cccc2c1 [Ex-27, (3R)-1-(7-(8-chloro-3-hydroxynaphthalen-1-yl)-6,8-difluoro-2-(((2R,7aS)-2-fluorotetrahydro-1H-pyrrolizin-7a(5H)-yl)methoxy)quinazolin-4-yl)piperidin-3-ol] |
| 151 nM | 48 nM |  |  |  | C[C@@]1(O)COCCN(c2nc(OC[C@@]34CCCN3C[C@H](F)C4)nc3c(F)c(-c4cc(O)cc5cccc(Cl)c45)c(F)cc23)C1 [Ex-37, (6S)-4-(7-(8-chloro-3-hydroxynaphthalen-1-yl)-6,8-difluoro-2-(((2R,7aS)-2-fluorotetrahydro-1H-pyrrolizin-7a(5H)-yl)methoxy)quinazolin-4-yl)-6-methyl-1,4-oxazepan-6-ol] |
| 3340 nM |  | 129 nM | 91 nM | 47 nM | C#Cc1cccc2cc(O)cc(-c3cnc4c(N5CCC[C@@](C)(O)C5)nc(OCC5(CN(C)C)CC5)nc4c3)c12 [Ex-19, (R)-1-(2-((1-((dimethylamino)methyl)cyclopropyl)methoxy)-7-(8-ethynyl-3-hydroxynaphthalen-1-yl)pyrido[3,2-d]pyrimidine-4-yl)-3-methylpiperidin-3-ol] |
| 1220 nM | 2260 nM |  |  |  | C[C@@H]1C[C@@H](O)CN1c1nc(OC[C@@]23CCCN2C[C@H](F)C3)nc2c(F)c(-c3cc(O)cc4cccc(Cl)c34)c(F)cc12 [Ex-28, (3R,5R)-1-(7-(8-chloro-3-hydroxynaphthalen-1-yl)-6,8-difluoro-2-(((2R,7aS)-2-fluorotetrahydro-1H-pyrrolizin-7a(5H)-yl)methoxy)quinazolin-4-yl)-5-methylpyrrolidin-3-ol] |
| 4690 nM |  | 291 nM | 986 nM | 168 nM | C#Cc1cccc2cccc(-c3c(F)cc4c(N5CCC[C@](C)(O)C5)nc(OC[C@@]56CCCN5C[C@H](F)C6)nc4c3F)c12 (single isomer, unassigned) [Ex-46] |
| 329 nM |  | 1 nM | 1 nM | 1 nM | C#Cc1cccc2cc(O)cc(-c3ncc4c(N5CCC[C@@](C)(O)C5)nc(OCC5(CN(C)C)CC5)nc4c3F)c12 [Ex-21, (R)-1-(2-((1-((dimethylamino)methyl)cyclopropyl)methoxy)-7-(8-ethynyl-3-hydroxynaphthalen-1-yl)-8-fluoropyrido[4,3-d]pyrimidin-4-yl)-3-methylpiperidin-3-ol] |
| 1180 nM |  | 6 nM | 4 nM | 6 nM | CN(C)CC1(COc2nc(N3CCC[C@@](C)(O)C3)c3cnc(-c4cc(O)cc5cccc(Cl)c45)c(F)c3n2)CC1 [Ex-20, (R)-1-(7-(8-chloro-3-hydroxynaphthalen-1-yl)-2-((1-((dimethylamino)methyl)cyclopropyl)methoxy)-8-fluoropyrido[4,3-d]pyrimidin-4-yl)-3-methylpiperidin-3-ol] |
| 1400 nM | 611 nM |  |  |  | Nc1nc2c(-c3c(Cl)cc4c(N5CCCC(O)CC5)nc(OC[C@@]56CCCN5C[C@H](F)C6)nc4c3F)c(F)cc(F)c2o1 (stereo partly drawn) [Ex-25, 1-(7-(2-amino-5,7-difluorobenzo[d]oxazol-4-yl)-6-chloro-8-fluoro-2-(((2R,7aS)-2-fluorotetrahydro-1H-pyrrolizin-7a(5H)-yl)methoxy)quinazolin-4-yl)azepan-4-ol] |
| 95 nM |  |  |  |  | C#Cc1cccc2cc(O)cc(-c3c(F)cc4c(N5CCC[C@@](C)(O)C5)nc(OCC5(CN6CCC(OC)CC6)CC5)nc4c3F)c12 [Ex-7, (3R)-1-(7-(8-ethynyl-3-hydroxvnaphthalen-1-yl)-6,8-difluoro-2-((1-((4-methoxypiperidin-1-yl)methyl)cyclopropyl)methoxy)quinazolin-4-yl)-3-methylpiperidin-3-ol] |
| 86 nM | 41 nM |  |  |  | C#Cc1cccc2cc(O)cc(-c3c(F)cc4c(N5CCC[C@@](C)(O)C5)nc(OCC5(CN6CC[C@@H](F)C6)CC5)nc4c3F)c12 [Ex-12, (3R)-1-(7-(8-ethyny1-3-hydroxynaphthalen-1-yl)-6,8-difluoro-2-((1-(((R)-3-fluoropyrrolidin-1-yl)methyl)cyclopropyl)meth-oxy)quinazolin-4-yl)-3-methylpiperidin-3-ol] |
| 1150 nM |  |  |  |  | COC1CCN(CC2(COc3nc(N4CCC[C@@](C)(O)C4)c4cc(F)c(-c5cc(O)cc6cccc(Cl)c56)c(F)c4n3)CC2)CC1 [Ex-5, (3R)-1-(7-(8-chloro-3-hydroxnagphthalen-1-yl)-6,8-difluoro-2-((1-((4-methoxypiperidin-1-yl)methyl)cyclopropyl)methoxy)quinazolin-4-yl)-3-methylpiperidin-3-ol] |
| 142 nM | 59 nM |  |  |  | C#Cc1cccc2cc(O)cc(-c3c(F)cc4c(N5CCC[C@@](C)(O)C5)nc(OC[C@]5(CO)CC5(F)F)nc4c3F)c12 [Ex-44, (3R)-1-(2-(((R)-2,2-difluoro-1-(hydroxy-methyl)cyclopropyl)methoxy)-7-(8-ethynyl-3-hydroxynaphthalen-1-yl)-6,8-difluoroquinazolin-4-yl)-3-methylpiperidin-3-ol] |
| 132 nM |  | 2 nM | 1 nM | 2 nM | C#Cc1cccc2cc(O)cc(-c3c(F)cc4c(N5CCC[C@@](C)(O)C5)nc(OCC5(CN(C)C)CC5)nc4c3F)c12 (single isomer, unassigned) [Ex-11] |
| 3050 nM |  |  |  |  | C[C@@]1(O)CCCN(c2nc(OCC3(CN4CCC(F)CC4)CC3)nc3c(F)c(-c4cc(O)cc5cccc(Cl)c45)c(F)cc23)C1 [Ex-6, (3R)-1-(7-(8-chloro-3-hydroxynaphthalen-1-yl)-6,8-difluoro-2-((1-((4-fluoropiperidin-1-yl)methyl)cyclopropyl)methoxy)quin-azolin-4-yl)-3-methylpiperidin-3-ol] |
| 4840 nM | 1820 nM |  |  |  | Oc1cc(-c2c(F)cc3c(N4CCC[C@H](O)CC4)nc(OC[C@@]45CCCN4C[C@H](F)C5)nc3c2F)c2c(Cl)cccc2c1 [Ex-35, (4S)-1-(7-(8-chloro-3-hydroxynaphthalen-1-yl)-6,8-difluoro-2-(((2R,7aS)-2-fluorotetrahydro-1H-pyrrolizin-7a(5H)-yl)methoxy)quinazolin-4-yl)azepan-4-ol] |
| 352 nM | 123 nM |  |  |  | C#Cc1cccc2cc(O)cc(-c3ccc4c(N5CCC[C@@](C)(O)C5)nc(OCC5(CN(C)C)CC5)nc4c3F)c12 [Ex-16, (R)-1-(2-((1-((dimethylamino)methyl)cyclopropyl)methoxy)-7-(8-ethynyl-3-hydroxynaphthalen-1-yl)-8-fluoroquinazolin-4-yl)-3-methylpiperidin-3-ol] |
| 3150 nM | 512 nM |  |  |  | C[C@@]1(O)CCCN(c2nc(OC[C@]3(CO)CC3(F)F)nc3c(F)c(-c4cc(O)cc5cccc(Cl)c45)c(F)cc23)C1 [Ex-30, (3R)-1-(7-(8-chloro-3-hydroxynaphthalen-1-yl)-2-(((R)-2,2-difluoro-1-(hydroxymethyl)cyclo-propyl)methoxy)-6,8-difluoroquinazolin-4-yl)-3-methylpiperidin-3-ol] |
